Measurements as given in US20220024992A1, “COMPOSITIONS AND METHODS COMPRISING LYSOCINS AS BIOENGINEERED ANTIMICROBIALS FOR USE IN TARGETING GRAM-NEGATIVE BACTERIA” (The Rockefeller University, priority 2018, published 2022).
Values joined by “and” are separate entries in the source; they are usually repeats but may differ in a detail not shown here. Equal values may be shown once.

What was measured:
[1] = test system: pseudomonal PG (autoclaved P. aeruginosa); test: Muralytic plate lysis assay on autoclaved Pseudomonas; assay type: biochemical; details: 25 pmol spotted
P. aeruginosa strain 453 [2] = test: Plate lysis assay using viable Pseudomonas; assay type: cell-based
Method: For determining muralytic activity, 25 pmol of each purified protein sample was spotted on 0.75% (wt/vol) agarose embedded with autoclaved P. aeruginosa in 50 mM Tris-HCl, pH 7.5. […] For elucidating antipseudomonal activity towards viable bacteria, 0.01-400 pmol of each purified protein sample was spotted on 0.75% (wt/vol) agarose comprising P. aeruginonsa strain 453 at an initial concentration of 5×10^6 CFU/ml in either CAA medium or CAA:HuS (1:1; HuS from pooled human male AB plasma, Sigma-Aldrich). Growth inhibition zones observed after 24 h incubation at 37° C. correspond to antipseudomonal activity. Buffer was spotted as a negative control.

P. aeruginosa strain 453 [3] = test: Dose-response cell viability assay (killing kinetics); assay type: cell-based; details: for reduction in bacterial viability: 0.1-100 μg/ml, CAA medium with EDDHA
Method: For the 12 h experiments, 0.01-100 μg/ml of PyS2-GN4 was incubated statically at 37° C. with P. aeruginosa strain 453 at 10^6 CFU/ml in CAA medium with 0.5 mg/ml EDDHA (Complete Green Company). At 2 h increments, an aliquot was removed from each sample, serial diluted and plated on CAA agar to determine viable bacterial counts. For the 24 h experiments, lysocin at 0.1-100 μg/ml was incubated statically at 37° C. with P. aeruginosa strain 453 at 10^6 CFU/ml in either CAA medium or CAA:HuS (1:1) with EDDHA. After 24 h, the samples were serial diluted and plated on CAA agar to assess bacterial viability. An untreated control was used for each data set. All samples were investigated in duplicate.

P. aeruginosa strain 453 [4] = test: Lysocin thermal stability (residual antipseudomonal activity after heating); assay type: physicochemical; details: 30 min incubation in PBS, then 50 μg/ml for 4 h at 37° C.
Method: FIG. 7. Lysocin thermal stability. PyS2-GN4 was incubated in phosphate buffered saline (PBS) for 30 min at temperatures ranging from 4° C. to 80° C. After cooling on ice, each sample at 50 μg/ml was incubated statically with P. aeruginosa strain 453 for a total of 4 h at 37° C. The average residual antipseudomonal activity of each sample was equated to the log10 decrease in viable bacterial cells when compared to the untreated control. All error bars correspond to ±SEM of triplicate experiments.

P. aeruginosa strains = test: MIC and MBC, modified CLSI broth microdilution, CAA medium; assay type: cell-based
Method: (§1) The MIC and MBC values were calculated using a modified version of the broth microdilution assay as previously described by the Clinical and Laboratory Standards Institute (CLSI) (45). The specific modifications were to the bacterial concentration and growth medium used. […] CAA medium was used for Gram-negative bacteria to simulate low iron conditions. Alternatively, MHB was used for Gram-positive bacteria due to their inability to grow in CAA medium. Bacterial growth was assessed by measuring the OD600 nm using a SpectraMax M5 microplate reader (Molecular Devices). The MIC was defined as the lowest antimicrobial concentration that inhibits bacterial growth. To determine the MBC, the contents from each well originating from the MIC microtiter plate was plated on CAA agar to quantitate bacterial viability. The MBC was defined as the lowest antimicrobial concentration required to kill ≥99.9% of the initial bacterial inoculum. Growth and sterility controls were included.

B. cereus RSVF1 = test: MIC, modified broth microdilution, MHB; assay type: cell-based
Method: as §1

E. faecium EFSK-2 = test: MIC, modified broth microdilution, MHB; assay type: cell-based
Method: as §1

S. aureus NR-45946 = test: MIC, modified broth microdilution, MHB; assay type: cell-based
Method: as §1

S. pyogenes D471 = test: MIC, modified broth microdilution, MHB; assay type: cell-based
Method: as §1

A. baumaneii ATCC 17978 = test: MIC, modified broth microdilution, CAA medium; assay type: cell-based
Method: as §1

E. cloacae NR-50391 = test: MIC, modified broth microdilution, CAA medium; assay type: cell-based
Method: as §1

E. coli ATCC 25922 = test: MIC, modified broth microdilution, CAA medium; assay type: cell-based
Method: as §1

K. pneumoniae NR-41916 = test: MIC, modified broth microdilution, CAA medium; assay type: cell-based
Method: as §1

P. aeruginosa strain 453 [5] = test: Transmission electron microscopy of lysocin-treated bacteria; assay type: cell-based; details: 50 μg/ml
Method: At 0, 30 and 60 min, an aliquot was removed and fixed with 100 mM sodium cacodylate, pH 7.4, containing 4% (vol/vol) paraformaldehyde and 2% (vol/vol) glutaraldehyde. TEM images were obtained by The Rockefeller University Electron Microscopy Resource Center.

P. aeruginosa strain 453 [6] = test: Endotoxin release (chromogenic LAL assay); assay type: cell-based; details: after 4 h treatment, 0.2× and 5×MIC
Method: Endotoxin Release P. aeruginosa strain 453 at 10^6 CFU/ml was treated with 0.2× and 5×MIC PyS2-GN4, colistin, meropenem or tobramycin in CAA medium for either 1 or 4 h at 37° C. The samples were subsequently centrifuged at 2,000×g for 10 min. The supernatant was collected and passed through a 0.2 μm syringe filter. Endotoxin concentration in the filtered supernatant was quantitated using the ToxinSensor Chromogenic LAL Endotoxin Assay Kit (GenScript). All data was depicted as the mean±SEM of duplicate experiments.

P. aeruginosa strain 453 [7] = test: Murine model of bacteremia; assay type: in vivo, mice; details: for protected from death (survival over 10 days): 3 h post-infection
Method: A murine model of bacteremia using P. aeruginosa was adapted from previous studies (46-50). Briefly, male 6-week-old C57BL/6 mice (Charles River Laboratories) were IP infected with 10^8 P. aeruginosa strain 453 and then IP treated 3 h post-infection with a single dosage of either PBS or PyS2-GN4 at 2.5-25 mg/kg. Survival was monitored for 10 days. The collective results were obtained from four independent experiments and analyzed by Kaplan-Meier survival curves using GraphPad Prism. The Rockefeller University Institutional Animal Care and Use Committee approved all mouse experiments (protocol 17025).

P. aeruginosa strain 453 [8] = test: Cell viability assays with 0.5 μM antimicrobial; details: iron-chelated CAA medium
Method: P. aeruginosa strain 453 were grown under iron-depleted conditions (see Bacterial Strains and Growth Conditions). The bacteria were harvested, washed and resuspended in fresh CAA medium with 0.5 mg/ml EDDHA. Using a 96-well flat-bottomed microtiter plate, the bacteria at ˜10^6 CFU/ml were incubated statically at 37° C. with either growth medium only (untreated control) or 0.5 μM purified antimicrobial. A 2 h incubation was used for the single time point experiments, whereas a 4 or 6 h incubation was used for the multiple time point assays. At various time points, an aliquot was removed from each sample, serially diluted and plated on CAA agar. After incubating the agar plates for up to 48 h at 37° C., colonies were counted in order to quantitate the CFU/ml concentration of surviving bacterial cells. Modifications were introduced to the aforementioned cell viability assay protocol for the experiment using P. aeruginosa grown in the presence of varying free iron concentrations. First, P. aeruginosa strain 453 were grown using iron-depleted or iron-rich conditions (CAA medium supplemented with 100 μM FeSO4) at 37° C. with aeration for a total of 16-18 h and subsequently assayed for lysocin sensitivity in PBS, pH 7.4. For the experiment analyzing lysocin activity in the presence of lung surfactant or serum, P. aeruginosa were incubated with or without lysocin in beractant ([sequence]; Abbvie) or HuS diluted 1:1 with 20 mM sodium phosphate, pH 7.0.

PyS2-GN4: lysocin: PyS2 domains I-III, with domain IV (aa 559-689) deleted and replaced by the GN4 lysin (aa 1-144); 76 kDa
muralytic activity (clearing zones) on autoclaved P. aeruginosa [1]: degraded Pseudomonas PG | amount spotted at which activity could be observed (P. aeruginosa strain 453 [2]; 50% HuS): 0.13 pmol | amount spotted at which antipseudomonal activity was displayed (P. aeruginosa strain 453 [2]; growth medium (CAA)): 0.64 pmol | reduction in bacterial viability (P. aeruginosa strain 453 [3]; 2 h): ~2 log10 | reduction in bacterial viability (P. aeruginosa strain 453 [3]; 4 h): ~3 log10 | reduction in bacterial viability (P. aeruginosa strain 453 [3]; 12 h): ~4 log10 | lysocin concentration that sterilized the bacterial culture (P. aeruginosa strain 453 [3]; 24 h, CAA medium and 50% HuS): 10 μg/ml and 132 nM | concentration at which bactericidal (P. aeruginosa strain 453 [3]; after 4 h): 0.1 µg/mL | temperature at which bactericidal activity was fully retained (P. aeruginosa strain 453 [4]): 45 °C | MIC (P. aeruginosa strains; strain 452, FpvA type I): 4 µg/mL | MBC (P. aeruginosa strains; strain 453, FpvA type I): 0.25 µg/mL | MIC (P. aeruginosa strains; strain 453, FpvA type I): 0.25 µg/mL | MIC (P. aeruginosa strains; strain MDR-M-3, FpvA type I): 2 µg/mL | MIC (P. aeruginosa strains; strain PAO1, FpvA type I): 2 µg/mL | MIC values (P. aeruginosa strains; towards strain PAO1 and the 452, 453 and MDR-M-3 clinical isolates): ≤ 4 µg/mL | MIC (B. cereus RSVF1): >256 µg/mL | MIC (E. faecium EFSK-2): >256 µg/mL | MIC (S. aureus NR-45946): >256 µg/mL | MIC (S. pyogenes D471): >256 µg/mL | MIC (A. baumaneii ATCC 17978): >256 µg/mL | MIC (E. cloacae NR-50391): >256 µg/mL | MIC (E. coli ATCC 25922): >256 µg/mL | MIC (K. pneumoniae NR-41916): >256 µg/mL | bacterial morphology by TEM (P. aeruginosa strain 453 [5]; 30 min post-treatment): transitioned from rod-shaped to a more spherical morphology | bacterial morphology by TEM (P. aeruginosa strain 453 [5]; 60 min post-treatment): intact, nonviable cells either lacking or with noticeably reduced cytoplasmic content | endotoxin release, fold less than meropenem and tobramycin (P. aeruginosa strain 453 [6]): ~100 fold | protected from death (survival over 10 days) (P. aeruginosa strain 453 [7]; 2.5 mg/kg IP): 73% | protected from death (survival over 10 days) (P. aeruginosa strain 453 [7]; 5 mg/kg IP): 80% | protected from death (survival over 10 days) (P. aeruginosa strain 453 [7]; 12.5 mg/kg IP): 93% | protected from death (survival over 10 days) (P. aeruginosa strain 453 [7]; 25 mg/kg IP): 100% | Pseudomonas in organs of surviving mice (P. aeruginosa strain 453 [7]; day 10): did not contain detectable Pseudomonas | decrease in pseudomonal viability (P. aeruginosa strain 453 [8]; 3 h): 3.1 log10 | viable bacterial cells relative to limit of detection (10 CFU/ml) (P. aeruginosa strain 453 [8]; duration of the experiment (6 h)): incapable of lowering the number of viable bacterial cells to the limit of detection
